Columns and labels:
[1] = molecular target: T1, PXR (NR1I2) (Homo sapiens, UniProt O75469); experiment: Agonist activity at human PXR transfected in HEK293 cells after 24 hrs by luciferase reporter gene assay relative to T0901317; type: cell-based; conditions: HEK293 cells transfected with human PXR, read-out: Efficacy
T1 sequence (O75469 whole entry): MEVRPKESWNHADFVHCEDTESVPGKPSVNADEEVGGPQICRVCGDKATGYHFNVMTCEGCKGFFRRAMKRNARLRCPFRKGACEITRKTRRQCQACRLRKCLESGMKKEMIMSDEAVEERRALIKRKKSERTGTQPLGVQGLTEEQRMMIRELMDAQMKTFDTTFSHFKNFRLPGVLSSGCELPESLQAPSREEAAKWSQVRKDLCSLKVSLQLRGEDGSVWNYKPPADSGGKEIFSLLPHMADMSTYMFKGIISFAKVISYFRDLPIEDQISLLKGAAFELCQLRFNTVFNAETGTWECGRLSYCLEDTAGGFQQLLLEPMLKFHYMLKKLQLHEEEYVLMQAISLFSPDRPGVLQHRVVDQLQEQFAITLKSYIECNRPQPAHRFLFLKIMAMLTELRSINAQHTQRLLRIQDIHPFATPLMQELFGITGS

[2] = Octanol-water partition coefficient, log P of the compound by HPLC method; type: physicochemical
[3] = molecular target: T2, Oxysterols receptor LXR-alpha (Homo sapiens, UniProt Q13133); experiment: Agonist activity at human LXRalpha transfected in HEK293 cells after 24 hrs by luciferase reporter gene assay; type: cell-based
T2 sequence (Q13133 whole entry): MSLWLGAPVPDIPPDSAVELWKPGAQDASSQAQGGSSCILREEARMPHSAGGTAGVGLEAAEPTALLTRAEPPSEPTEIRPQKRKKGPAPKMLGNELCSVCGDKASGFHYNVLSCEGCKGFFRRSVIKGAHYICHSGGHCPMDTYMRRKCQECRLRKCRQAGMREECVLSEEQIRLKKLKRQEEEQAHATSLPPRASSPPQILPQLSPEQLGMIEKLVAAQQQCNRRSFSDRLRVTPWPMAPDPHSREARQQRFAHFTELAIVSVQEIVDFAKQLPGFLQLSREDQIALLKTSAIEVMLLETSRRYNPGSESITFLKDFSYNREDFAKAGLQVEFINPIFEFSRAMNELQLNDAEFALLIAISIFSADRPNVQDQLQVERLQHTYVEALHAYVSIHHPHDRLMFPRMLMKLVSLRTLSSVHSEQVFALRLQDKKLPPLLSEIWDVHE

[4] = molecular target: T3, Oxysterols receptor LXR-beta (Homo sapiens, UniProt P55055); experiment: Agonist activity at human LXRbeta transfected in HEK293 cells after 24 hrs by luciferase reporter gene assay; type: cell-based
T3 sequence (P55055 whole entry): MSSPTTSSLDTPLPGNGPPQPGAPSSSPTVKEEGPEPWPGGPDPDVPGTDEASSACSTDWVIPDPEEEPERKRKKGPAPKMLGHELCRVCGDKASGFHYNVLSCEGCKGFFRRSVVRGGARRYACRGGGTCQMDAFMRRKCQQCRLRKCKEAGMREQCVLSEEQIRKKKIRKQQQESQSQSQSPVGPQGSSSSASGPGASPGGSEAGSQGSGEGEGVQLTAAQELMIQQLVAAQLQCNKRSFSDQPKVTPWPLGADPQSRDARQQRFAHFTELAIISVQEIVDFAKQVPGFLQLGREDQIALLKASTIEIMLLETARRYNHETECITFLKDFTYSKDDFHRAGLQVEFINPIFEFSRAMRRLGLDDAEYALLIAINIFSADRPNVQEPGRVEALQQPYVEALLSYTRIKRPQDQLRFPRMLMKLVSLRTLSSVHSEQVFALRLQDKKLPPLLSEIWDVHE

[5] = molecular target: T4, Bile acid receptor (Homo sapiens, UniProt Q96RI1); experiment: Agonist activity at human FXR transfected in HEK293 cells after 24 hrs by luciferase reporter gene assay; type: cell-based
T4 sequence (Q96RI1 whole entry): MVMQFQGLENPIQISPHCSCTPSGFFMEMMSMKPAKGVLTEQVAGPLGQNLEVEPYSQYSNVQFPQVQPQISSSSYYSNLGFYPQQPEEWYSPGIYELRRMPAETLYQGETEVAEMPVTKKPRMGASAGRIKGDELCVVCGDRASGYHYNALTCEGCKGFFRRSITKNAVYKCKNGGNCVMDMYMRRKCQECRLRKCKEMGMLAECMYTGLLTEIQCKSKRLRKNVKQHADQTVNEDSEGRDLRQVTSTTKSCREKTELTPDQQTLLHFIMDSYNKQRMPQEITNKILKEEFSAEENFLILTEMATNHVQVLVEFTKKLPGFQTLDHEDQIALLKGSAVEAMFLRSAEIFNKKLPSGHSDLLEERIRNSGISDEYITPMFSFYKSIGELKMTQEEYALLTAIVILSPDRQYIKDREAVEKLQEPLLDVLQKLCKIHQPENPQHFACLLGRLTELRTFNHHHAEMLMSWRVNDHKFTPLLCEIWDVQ

[6] = molecular target: T5, Nuclear receptor subfamily 1 group I member 2 (Homo sapiens, UniProt O75469); experiment: Agonist activity at human PXR transfected in HEK293 cells after 24 hrs by luciferase reporter gene assay; type: cell-based
T5 sequence (O75469 whole entry): T1 sequence (O75469 whole entry)

[7] = molecular target: T6, Nuclear receptor ROR-alpha (Homo sapiens, UniProt P35398); experiment: Inverse agonist activity at human RORalpha transfected in HEK293 cells after 24 hrs by beta galactosidase luciferase reporter gene assay; type: cell-based
T6 sequence (P35398 whole entry): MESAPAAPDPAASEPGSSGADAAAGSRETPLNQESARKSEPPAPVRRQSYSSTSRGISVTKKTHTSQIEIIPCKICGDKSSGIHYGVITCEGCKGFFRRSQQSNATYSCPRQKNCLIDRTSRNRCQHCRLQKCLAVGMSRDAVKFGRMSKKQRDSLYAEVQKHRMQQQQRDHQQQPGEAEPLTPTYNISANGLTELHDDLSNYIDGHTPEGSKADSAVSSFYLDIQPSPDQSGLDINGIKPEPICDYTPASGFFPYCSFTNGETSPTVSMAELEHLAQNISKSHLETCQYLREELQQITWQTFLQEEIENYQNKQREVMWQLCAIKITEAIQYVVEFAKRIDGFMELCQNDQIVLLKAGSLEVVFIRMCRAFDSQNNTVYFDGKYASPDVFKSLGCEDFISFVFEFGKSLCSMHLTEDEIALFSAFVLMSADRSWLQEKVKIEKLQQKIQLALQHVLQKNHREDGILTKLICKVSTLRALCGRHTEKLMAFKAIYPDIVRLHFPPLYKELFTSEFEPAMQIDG

[8] = molecular target: T7, Nuclear receptor ROR-beta (Homo sapiens, UniProt Q92753); experiment: Inverse agonist activity at human RORbeta transfected in HEK293 cells after 24 hrs by beta galactosidase luciferase reporter gene assay; type: cell-based
T7 sequence (Q92753 whole entry): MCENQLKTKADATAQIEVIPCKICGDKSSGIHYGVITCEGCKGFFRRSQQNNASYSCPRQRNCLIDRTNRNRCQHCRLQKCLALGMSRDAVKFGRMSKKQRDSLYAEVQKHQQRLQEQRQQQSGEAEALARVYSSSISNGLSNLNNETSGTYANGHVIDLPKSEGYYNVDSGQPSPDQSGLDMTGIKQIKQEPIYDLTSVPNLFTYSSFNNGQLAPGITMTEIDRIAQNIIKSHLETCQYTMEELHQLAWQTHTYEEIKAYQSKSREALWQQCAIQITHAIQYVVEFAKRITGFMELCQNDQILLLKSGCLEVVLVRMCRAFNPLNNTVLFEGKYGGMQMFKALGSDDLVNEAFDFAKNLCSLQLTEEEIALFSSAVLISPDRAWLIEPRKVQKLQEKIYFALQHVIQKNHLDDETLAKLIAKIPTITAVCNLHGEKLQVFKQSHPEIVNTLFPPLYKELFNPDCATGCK

[9] = molecular target: T8, Nuclear receptor ROR-gamma (Homo sapiens, UniProt P51449); experiment: Inverse agonist activity at human RORgamma transfected in HEK293 cells after 24 hrs by beta galactosidase luciferase reporter gene assay; type: cell-based
T8 sequence (P51449 whole entry): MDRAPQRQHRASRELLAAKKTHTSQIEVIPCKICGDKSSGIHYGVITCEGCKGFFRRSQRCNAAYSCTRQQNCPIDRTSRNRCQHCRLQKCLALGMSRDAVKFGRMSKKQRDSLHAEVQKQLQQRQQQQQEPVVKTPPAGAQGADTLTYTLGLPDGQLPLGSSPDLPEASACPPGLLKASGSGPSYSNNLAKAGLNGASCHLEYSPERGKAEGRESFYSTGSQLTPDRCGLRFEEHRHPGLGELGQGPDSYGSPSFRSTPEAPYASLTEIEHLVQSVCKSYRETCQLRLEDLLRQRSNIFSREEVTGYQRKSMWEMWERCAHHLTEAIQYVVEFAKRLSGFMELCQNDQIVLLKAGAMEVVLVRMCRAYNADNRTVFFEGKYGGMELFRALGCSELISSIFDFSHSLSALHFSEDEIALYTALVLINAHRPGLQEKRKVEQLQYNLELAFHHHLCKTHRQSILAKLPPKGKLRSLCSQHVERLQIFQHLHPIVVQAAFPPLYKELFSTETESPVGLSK

[10] = molecular target: T4, Bile acid receptor; experiment: Partial agonist activity at human FXR transfected in HEK293 cells after 24 hrs by luciferase reporter gene assay; type: cell-based
[11] = molecular target: T9, Bile acid receptor (Homo sapiens) (UniProt Q96RI1); experiment: Partial agonist activity at human FXR transfected in HEK293 cells after 24 hrs by luciferase reporter gene assay relative to T0901317; type: cell-based
T9 sequence (whole entry): T4 sequence (Q96RI1 whole entry)

Emax at 24 h [1] | logP [2] | EC50 [3] | EC50 [4] | EC50 [5] | EC50 ([6]; hek293) | IC50 ([7]; hek293) | IC50 ([8]; hek293) | IC50 ([9]; hek293) | EC50 ([6]; read-out: EC50) | IC50 ([7]; read-out: IC50) | IC50 ([8]; read-out: IC50) | IC50 ([9]; read-out: IC50) | EC50 [10] | Efficacy [11] | Compound
75% |  |  |  |  |  |  |  |  |  |  |  |  |  |  | CO[C@H]1/C=C/O[C@@]2(C)Oc3c(C)c(O)c4c(O)c(c(/C=N/N5CCN(C)CC5)c(O)c4c3C2=O)NC(=O)/C(C)=C\C=C\[C@H](C)[C@H](O)[C@@H](C)[C@@H](O)[C@@H](C)[C@H](OC(C)=O)[C@@H]1C [RIFAMPIN]
 | 3.7 | Not Active | Not Active | Not Active | Not Active | Not Active | Not Active | Not Active |  |  |  |  |  |  | CC(C)(O)c1ccc(N(CC(F)(F)F)S(=O)(=O)c2ccccc2)cc1
 | 5.38 |  |  |  |  | Not Active | Not Active |  |  |  |  |  |  |  | O=S(=O)(c1ccccc1)N(CC(F)(F)F)c1ccc(C(O)(C(F)(F)F)C(F)(F)F)cc1 [T091317]
61% | 4.23 | Not Active | Not Active |  |  |  |  |  | 0.88 µM | 53 µM | 60 µM | 43 µM | 11 µM | 23% | C[Si](C)(O)c1ccc(N(CC(F)(F)F)S(=O)(=O)c2ccccc2)cc1

— ChEMBL document CHEMBL3779847, “Altered activity profile of a tertiary silanol analog of multi-targeting nuclear receptor modulator T0901317” (Bioorg Med Chem Lett, 2016)
